Five compounds from patent publication US7582628B2, “Pyrrolo[3,4-c]pyrazole derivatives active as kinase inhibitors, process for their preparation and pharmaceutical compositions comprising them” (Pfizer Italia S.r.l., priority 2003, dated 2009) can be followed below.

Experiment [1] has as its system HCT-116. Nature of the experiment: In vitro cell proliferation assay. The class given is cell-based. As to conditions: Homo sapiens; HCT-116, 72 hours of treatment; read-out: Cell Antiproliferation IC50. How it is done:
In Vitro Cell Proliferation Assay
The human colon cancer cell line HCT-116 was seeded at 5000 cells/cm2 in 24 wells plate (Costar) using F12 medium (Gibco) supplemented with 10% FCS (EuroClone, Italy) 2 mM L-glutamine and 1% penicillin/streptomycin and maintained at 37° C., 5% CO2 and 96% relative humidity. The following day, plates were treated in duplicates with 5 ul of an appropriate dilution of compounds starting from a 10 mM stock in DMSO. Two untreated control wells were included in each plate. After 72 hours of treatment, medium was withdrawn and cells detached from each well using 0.5 ml of 0.05% (w/v) Trypsin, 0.02% (w/v) EDTA (Gibco). Samples were diluted with 9.5 ml of Isoton (Coulter) and counted using a Multisizer 3 cell counter (Beckman Coulter). Data were evaluated as percent of the control wells: % of CTR=(Treated−Blank)/(Control−Blank).
IC50 values were calculated by LSW/Data Analysis using Microsoft Excel sigmoidal curve fitting.

Experiment [2] relates to HCT-116. The experiment is described as follows: In vitro cell cycle analysis. It counts as cell-based, human. As to conditions: HCT-116, 200 nM, treated for 24 hours. The protocol: In Vitro Cell Cycle Analysis
The human colon cancer cell line HCT-116 was seeded at 5000 cells/cm2 in 24 wells plate (Costar) and cultured as mentioned above. Cells in their exponential phase of growth were treated for 24 hours with different concentrations of compound. Also, culture medium supernatant was collected to avoid loss of detached apoptotic or mitotic cells. Thereafter, cells were washed using PBS and detached by 0.05% (w/v) trypsin, 0.02% (w/v) EDTA (Gibco). Trypsin activity was stopped using culture medium. Adherent and non-adherent cell fractions were pooled and centrifuged at 2000 rpm for 10 minutes. Cells were re-suspended in PBS and counted using a Multisizer 3 cell counter (Beckman Coulter). For fixation, ethanol was added (70%, v/v) and cells were kept at −20° C. overnight.
One million fixed cells were centrifuged at 2000 rpm for 5 minutes and washed with PBS and subsequently stained for 1 hour at room temperature in the dark by adding 200 µl: 25 µg/ml propidium iodide (Sigma) and 15 ug/ml RNAse A (Sigma), 0.001% (v/v) Nonidet P40 (Sigma) in sodium citrate (0.1% w/v, pH 7.5). Samples were analyzed by flow cytometry at 488 nm excitation (FACSCalibur, Beckton Dickinson) using Cell Quest 3.0 software (Beckton Dickinson). Typically 10000 events (activating doubles discriminate module DDM and gating only single cells) were collected and cell cycle profiles were recorded using CellQuest (Verity Software). Cell Cycle distribution of the population was calculated using a modified model in Modfit 3.1 software (Verity Software) and expressed in % G0/G1, S, G2/M and polyploidy.

The next experiment concerns the target T1, Aurora-2 (Homo sapiens, UniProt O14965).
T1 sequence (O14965 1-403): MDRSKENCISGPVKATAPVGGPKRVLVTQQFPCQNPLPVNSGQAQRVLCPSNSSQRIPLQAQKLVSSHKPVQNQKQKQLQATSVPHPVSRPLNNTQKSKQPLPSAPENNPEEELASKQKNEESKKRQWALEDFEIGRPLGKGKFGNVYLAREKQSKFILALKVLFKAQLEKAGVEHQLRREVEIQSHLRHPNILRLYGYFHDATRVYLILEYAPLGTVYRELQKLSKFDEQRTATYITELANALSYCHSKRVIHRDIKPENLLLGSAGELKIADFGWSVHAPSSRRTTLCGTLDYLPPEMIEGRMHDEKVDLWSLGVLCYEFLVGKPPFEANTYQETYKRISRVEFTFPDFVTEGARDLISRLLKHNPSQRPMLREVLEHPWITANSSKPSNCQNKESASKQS
The experiment is described as follows: Inhibition assay of Aurora-2 activity (SPA). It counts as biochemical. Particulars: 10 μM ATP, 60 minutes at room temperature. How it is done: The inhibiting activity and the potency of selected compounds is determined through a method of assay based on the use of the SPA technology (Amersham Pharmacia Biotech). The assay consists of the transfer of radioactivity labelled phosphate moiety by the kinase to a biotinylated substrate. The resulting 33P-labelled biotinylated product is allowed to bind to streptavidin-coated SPA beads (biotin capacity 130 pmol/mg), and light emitted was measured in a scintillation counter.
Inhibition Assay of Aurora-2 Activity
Kinase reaction: 8 μM biotinylated peptide (4 repeats of LRRWSLG), 10 μM ATP (0.5 uCi P^33γ-ATP), 7.5 ng Aurora 2, inhibitor in a final volume of 30 μl buffer (HEPES 50 mM pH 7.0, MgCl2 10 mM, 1 mM DTT, 0.2 mg/ml BSA, 3 μM orthovanadate) were added to each well of a 96 U bottom well plate. After 60 minutes at room temperature incubation, reaction was stopped and biotinylated peptide captured by adding 100 μl of bead suspension.
Stratification: 100 μl of CsCl2 5 M were added to each well and let stand 4 hour before radioactivity was counted in the Top-Count instrument.
IC50 determination: inhibitors were tested at different concentrations ranging from 0.0015 to 10 μM. Experimental data were analyzed by the computer program GraphPad Prizm using the four parameter logistic equation: y=bottom+(top−bottom)/(1+10^((log IC50−x)*slope)) where x is the logarithm of the inhibitor concentration, y is the response; y starts at bottom and goes to top with a sigmoid shape.

For `CO[C@@H](C(=O)N1Cc2[nH]nc(NC(=O)c3ccc(N4CCN(C)CC4)cc3)c2C1)c1ccccc1` [Compound (1), N-{5-[(2R)-2-methoxy-2-phenylethanoyl]-1,4,5,6-tetrahydropyrrolo[3,4-c]pyrazol-3-yl}-4-(4-methylpiperazin-1-yl)benzamide], the IC50 in the experiment on HCT-116 [1] was determined as 31 nM. Moreover, in the experiment on HCT-116 [2], the “Cell Cycle block (% G2/M + polyploidy at 200 nM)” value is 90%.

Regarding `CO[C@@H](C(=O)N1Cc2[nH]nc(NC(=O)c3ccc(N4CCN(C)C(C)C4)cc3)c2C1)c1ccccc1` (stereo partly drawn) [Compound (5), 4-(3,4-dimethylpiperazin-1-yl)-N-{5-[(2R)-2-methoxy-2-phenylethanoyl]-1,4,5,6-tetrahydropyrrolo[3,4-c]pyrazol-3-yl}benzamide], the IC50 was determined as 50 nM with HCT-116 [1] and 18 nM at Aurora-2. Further, in the experiment on HCT-116 [2], the “Cell Cycle block (% G2/M + polyploidy at 200 nM)” value was 90%.

Turning to `CO[C@@H](C(=O)N1Cc2[nH]nc(NC(=O)c3ccc(N4CCCCC4)cc3)c2C1)c1ccccc1` [Compound (6), N-{5-[(2R)-2-methoxy-2-phenylethanoyl]-1,4,5,6-tetrahydropyrrolo[3,4-c]pyrazol-3-yl}-4-piperidin-1-ylbenzamide], the IC50 in the experiment on HCT-116 [1] was 30 nM; at Aurora-2, 37 nM. Moreover, the “Cell Cycle block (% G2/M + polyploidy at 200 nM)” value with HCT-116 [2] turned out to be 90%.

As to `C[C@@H](C(=O)N1Cc2[nH]nc(NC(=O)c3ccc(N4CCN(C)CC4)cc3)c2C1)c1ccccc1` [Compound (11), N-{5-[(2R)-2-methyl-2-phenylethanoyl]-1,4,5,6-tetrahydropyrrolo[3,4-c]pyrazol-3-yl}-4-(4-methylpiperazin-1-yl)benzamide], the IC50 in the experiment with HCT-116 [1] came out at 17 nM; at Aurora-2, 63 nM. In addition, in the experiment with HCT-116 [2], the “Cell Cycle block (% G2/M + polyploidy at 200 nM)” value came to 90%.

Take `CN1CCN(c2ccc(C(=O)Nc3[nH]nc4c3CN(C(=O)Cc3ccccc3)C4)cc2)CC1` [Reference compound, N-{5-phenylacetyl-4,6-dihydropyrrolo[3,4-c]pyrazol-3-yl}-4-(4-methylpiperazino)benzamide, reference compound]: the figures for the IC50 with HCT-116 [1] and on Aurora-2 were 220 nM and 140 nM, respectively. Also, the “Cell Cycle block (% G2/M + polyploidy at 200 nM)” value in the experiment with HCT-116 [2] amounted to 33%.
